Drawing on ChEMBL document CHEMBL3124876, “A perylene derivative regulates HIF-1α and Stat3 signaling pathways” (Bioorg Med Chem, 2014), this text covers inhibition and Activity for one molecule.

Data set [1] concerns the target Aryl hydrocarbon receptor nuclear translocator (Homo sapiens) (UniProt P27540). The experiment in a line: Inhibition of HIF-1 beta in human MDA-MB-231 cells at 1 to 20 uM by Western blotting analysis. The data set is classed as cell-based.
In data set [2] the test system is PANC-1. The experiment in a line: Reduction of total Stat3 level in human PANC1 cells at 0.5 to 20 uM by Western blotting analysis. The data set is classed as functional, cell-based.
Another data set has as its system MDA-MB-468. The data set is described as follows: Reduction of total Stat3 level in human MDA-MB-468 cells at 1 to 20 uM by Western blotting analysis. The data set is classed as functional, cell-based. For orientation: In western blotting, separated proteins are transferred to a membrane and probed.
Data set [3] deals with MDA-MB-231. The data set is described as follows: Reduction of total Stat3 level in human MDA-MB-231 cells at 0.05 to 20 uM by Western blotting analysis. The data set is classed as functional, cell-based.
Data set [4] concerns the target Hypoxia-inducible factor 1-alpha (Homo sapiens) (UniProt Q16665). The data set is described as follows: Inhibition of HIF-1 alpha in human OVCAR3 cells assessed as inhibition of Bcl2 expression at 1 to 20 uM by Western blotting analysis in normoxia condition. The data set is classed as cell-based. The following applies: OVCAR-3.
In data set [5] the target is Endothelial PAS domain-containing protein 1 (Homo sapiens) (UniProt Q99814). The data set is described as follows: Inhibition of HIF-2 alpha in human MDA-MB-468 cells at 1 to 20 uM by Western blotting analysis in hypoxia condition. The data set is classed as cell-based.
Data set [6] concerns the target Hypoxia-inducible factor 1-alpha (Homo sapiens) (UniProt Q16665). The data set is described as follows: Inhibition of HIF-1alpha in human MDA-MB-231 cells at 10 uM after 18 hrs by Western blotting analysis in hypoxia condition. The data set is classed as cell-based.
For data set [7], the target named is Signal transducer and activator of transcription 3 (Homo sapiens) (UniProt P40763). The data set is described as follows: Inhibition of Stat3 phosphorylation in human MDA-MB-231 cells assessed as inhibition of c-Myc expression at 1 to 20 uM by Western blotting analysis. The data set is classed as cell-based.
Signal transducer and activator of transcription 3 (Homo sapiens), sequence (P40763 whole entry): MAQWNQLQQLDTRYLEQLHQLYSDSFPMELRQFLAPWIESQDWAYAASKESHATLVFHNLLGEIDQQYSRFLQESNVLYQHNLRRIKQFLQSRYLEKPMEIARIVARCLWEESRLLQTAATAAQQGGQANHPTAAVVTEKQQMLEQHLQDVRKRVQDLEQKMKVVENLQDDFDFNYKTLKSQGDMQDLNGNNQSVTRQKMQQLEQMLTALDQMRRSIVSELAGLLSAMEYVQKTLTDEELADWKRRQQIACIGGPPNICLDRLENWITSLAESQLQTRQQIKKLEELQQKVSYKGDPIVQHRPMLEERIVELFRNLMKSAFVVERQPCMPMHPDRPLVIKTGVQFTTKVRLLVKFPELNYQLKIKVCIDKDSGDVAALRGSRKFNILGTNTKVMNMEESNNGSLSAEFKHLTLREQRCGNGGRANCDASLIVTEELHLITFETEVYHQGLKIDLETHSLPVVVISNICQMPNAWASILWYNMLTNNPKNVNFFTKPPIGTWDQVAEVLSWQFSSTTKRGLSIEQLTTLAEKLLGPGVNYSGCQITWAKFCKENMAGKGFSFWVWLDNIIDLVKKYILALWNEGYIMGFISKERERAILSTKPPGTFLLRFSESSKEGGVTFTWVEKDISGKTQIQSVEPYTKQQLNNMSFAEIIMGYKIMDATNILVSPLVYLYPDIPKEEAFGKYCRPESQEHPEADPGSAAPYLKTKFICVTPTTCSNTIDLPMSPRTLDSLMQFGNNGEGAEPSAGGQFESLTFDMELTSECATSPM
Data set [8] is described as follows: Antitumor activity against human PANC1 cells xenografted in Balb nu/nu mouse assessed as mean tumor weight at 2 mg/kg, ip administered every other day for 10 days measured after 19 days (reference value: 0.5 +/- 0.05 g). The data set is classed as functional, PANC-1. The following applies: route intraperitoneal. A general note: A xenograft is tissue or cells of one species grown in another, often human tumour cells in immunodeficient mice.

Data set [9] can be described thus: Antitumor activity against human PANC1 cells xenografted in Balb nu/nu mouse assessed as mean tumor volume at 2 mg/kg, ip administered every other day for 10 days measured after 19 days (reference value: 754 mm'3). The data set is classed as functional, PANC-1. Particulars: route intraperitoneal.
Data set [10] relates to MDA-MB-231. The experiment in a line: Antitumor activity against human MDA-MB-231 cells xenografted in Balb nu/nu mouse assessed as reduction in tumor growth at 2 mg/kg, ip administered every other day for 10 days. The data set is classed as functional, organism-based. On the set-up: dose 2 mg/kg.
Data set [11] is described as follows: Induction of apoptosis in human MCF10A cells assessed as reduction in cell viability at 1 to 10 uM by MTT assay. The data set is classed as cell-based. Particulars: mcf-10a. In general terms: Tetrazolium dyes change colour on reduction, which living cells bring about.
The target in data set [12] is Proto-oncogene tyrosine-protein kinase Src (Homo sapiens) (UniProt P12931). The experiment in a line: Inhibition of Src kinase (unknown origin) assessed as total SRC level at 10 uM after 6 hrs by cell-based Western blotting analysis.
Proto-oncogene tyrosine-protein kinase Src (Homo sapiens), sequence (P12931 2-536 limits assumed): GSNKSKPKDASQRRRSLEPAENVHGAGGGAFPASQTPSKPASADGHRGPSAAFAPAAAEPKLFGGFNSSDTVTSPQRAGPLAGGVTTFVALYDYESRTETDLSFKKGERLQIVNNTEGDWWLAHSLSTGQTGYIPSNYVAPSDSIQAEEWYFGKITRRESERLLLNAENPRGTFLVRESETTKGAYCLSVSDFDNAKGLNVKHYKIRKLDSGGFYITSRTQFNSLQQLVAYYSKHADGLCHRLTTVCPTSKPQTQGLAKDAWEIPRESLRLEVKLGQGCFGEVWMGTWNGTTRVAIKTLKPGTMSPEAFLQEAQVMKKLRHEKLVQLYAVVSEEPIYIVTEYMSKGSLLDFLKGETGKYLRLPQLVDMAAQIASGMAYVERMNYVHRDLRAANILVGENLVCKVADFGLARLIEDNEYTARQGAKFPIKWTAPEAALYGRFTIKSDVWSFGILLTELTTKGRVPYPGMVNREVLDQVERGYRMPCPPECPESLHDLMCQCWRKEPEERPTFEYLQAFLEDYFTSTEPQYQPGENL
Data set [13] deals with Histone acetyltransferase p300 (Homo sapiens) (UniProt Q09472). The data set is described as follows: Inhibition of P300 in human PC3 cells after 18 hrs by Western blotting analysis in hypoxia condition. The following applies: PC-3. The data set is classed as cell-based.
Histone acetyltransferase p300 (Homo sapiens), sequence (Q09472 whole entry): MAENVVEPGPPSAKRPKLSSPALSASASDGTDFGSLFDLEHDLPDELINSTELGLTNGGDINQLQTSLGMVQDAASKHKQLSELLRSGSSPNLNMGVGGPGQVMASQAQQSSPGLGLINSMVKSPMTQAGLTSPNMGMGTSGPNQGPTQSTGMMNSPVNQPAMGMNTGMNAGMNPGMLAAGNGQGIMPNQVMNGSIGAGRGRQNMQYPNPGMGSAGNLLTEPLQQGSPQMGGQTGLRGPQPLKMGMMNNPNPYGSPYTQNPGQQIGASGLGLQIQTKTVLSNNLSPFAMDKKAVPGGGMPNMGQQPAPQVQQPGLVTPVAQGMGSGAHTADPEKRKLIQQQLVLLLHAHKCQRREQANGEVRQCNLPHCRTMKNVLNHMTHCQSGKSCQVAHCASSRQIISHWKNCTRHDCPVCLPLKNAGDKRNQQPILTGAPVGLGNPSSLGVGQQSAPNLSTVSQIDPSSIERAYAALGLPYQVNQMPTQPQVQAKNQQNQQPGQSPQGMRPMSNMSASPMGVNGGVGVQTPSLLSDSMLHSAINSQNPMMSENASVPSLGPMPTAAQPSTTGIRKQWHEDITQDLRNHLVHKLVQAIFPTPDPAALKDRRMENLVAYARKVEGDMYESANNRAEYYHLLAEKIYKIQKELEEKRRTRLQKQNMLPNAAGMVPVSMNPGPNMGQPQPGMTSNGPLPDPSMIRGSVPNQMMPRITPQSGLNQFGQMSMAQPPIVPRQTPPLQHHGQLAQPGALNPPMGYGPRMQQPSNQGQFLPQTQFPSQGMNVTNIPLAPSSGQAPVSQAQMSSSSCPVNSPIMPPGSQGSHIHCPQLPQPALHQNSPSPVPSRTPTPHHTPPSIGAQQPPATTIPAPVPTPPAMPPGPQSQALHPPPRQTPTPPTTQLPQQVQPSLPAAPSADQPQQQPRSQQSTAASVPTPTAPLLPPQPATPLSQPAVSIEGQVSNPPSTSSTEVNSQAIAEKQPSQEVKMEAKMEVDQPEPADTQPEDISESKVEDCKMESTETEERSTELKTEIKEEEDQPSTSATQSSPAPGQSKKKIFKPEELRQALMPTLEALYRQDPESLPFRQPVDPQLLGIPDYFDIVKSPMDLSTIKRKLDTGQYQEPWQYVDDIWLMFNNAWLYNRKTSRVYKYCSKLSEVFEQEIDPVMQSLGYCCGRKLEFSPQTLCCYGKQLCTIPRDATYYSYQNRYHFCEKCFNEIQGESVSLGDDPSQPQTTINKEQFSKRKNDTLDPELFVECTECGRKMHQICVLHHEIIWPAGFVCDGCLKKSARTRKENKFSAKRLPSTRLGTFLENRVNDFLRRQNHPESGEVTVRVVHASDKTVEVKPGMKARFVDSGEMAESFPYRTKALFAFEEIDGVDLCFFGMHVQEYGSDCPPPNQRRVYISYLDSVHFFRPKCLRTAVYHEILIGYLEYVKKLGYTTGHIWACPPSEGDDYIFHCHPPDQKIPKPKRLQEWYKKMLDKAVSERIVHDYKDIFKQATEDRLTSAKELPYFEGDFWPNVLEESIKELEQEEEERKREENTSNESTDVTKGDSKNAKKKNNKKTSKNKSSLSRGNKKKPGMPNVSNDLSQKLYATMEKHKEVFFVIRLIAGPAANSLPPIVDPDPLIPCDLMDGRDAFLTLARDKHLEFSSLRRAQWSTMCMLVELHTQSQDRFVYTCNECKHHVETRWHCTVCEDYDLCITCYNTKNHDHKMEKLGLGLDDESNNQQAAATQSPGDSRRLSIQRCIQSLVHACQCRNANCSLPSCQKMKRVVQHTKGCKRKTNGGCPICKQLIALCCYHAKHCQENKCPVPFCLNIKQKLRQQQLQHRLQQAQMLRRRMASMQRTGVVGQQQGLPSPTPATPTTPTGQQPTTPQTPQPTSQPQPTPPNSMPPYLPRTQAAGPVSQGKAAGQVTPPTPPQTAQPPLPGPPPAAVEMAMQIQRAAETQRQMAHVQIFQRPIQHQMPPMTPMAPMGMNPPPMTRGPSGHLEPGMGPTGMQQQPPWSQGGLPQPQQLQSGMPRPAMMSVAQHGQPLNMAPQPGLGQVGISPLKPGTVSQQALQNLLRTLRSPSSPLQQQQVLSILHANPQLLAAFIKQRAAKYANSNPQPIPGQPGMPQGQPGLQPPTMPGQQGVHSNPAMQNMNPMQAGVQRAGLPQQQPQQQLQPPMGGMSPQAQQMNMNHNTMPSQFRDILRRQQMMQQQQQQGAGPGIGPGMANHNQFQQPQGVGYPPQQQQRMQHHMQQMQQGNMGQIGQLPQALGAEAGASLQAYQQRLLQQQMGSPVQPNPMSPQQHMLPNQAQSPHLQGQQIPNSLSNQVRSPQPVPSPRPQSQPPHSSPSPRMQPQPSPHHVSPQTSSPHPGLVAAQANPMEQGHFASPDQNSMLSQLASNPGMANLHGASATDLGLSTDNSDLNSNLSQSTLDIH
Data set [14] concerns the target Hypoxia-inducible factor 1-alpha (Homo sapiens) (UniProt Q16665). The experiment in a line: Inhibition of HIF-1 alpha in human PC3 cells after 18 hrs by Western blotting analysis in hypoxia condition. The data set is classed as cell-based. Particulars: PC-3.
For data set [15], the system named is PANC-1. The data set is described as follows: Inhibition of ERK in human PANC1 cells at 1 to 20 uM by Western blotting analysis. The data set is classed as cell-based.
Data set [16] has as its target T1, Signal transducer and activator of transcription 5A (Homo sapiens) (UniProt P42229).
T1 sequence (whole entry): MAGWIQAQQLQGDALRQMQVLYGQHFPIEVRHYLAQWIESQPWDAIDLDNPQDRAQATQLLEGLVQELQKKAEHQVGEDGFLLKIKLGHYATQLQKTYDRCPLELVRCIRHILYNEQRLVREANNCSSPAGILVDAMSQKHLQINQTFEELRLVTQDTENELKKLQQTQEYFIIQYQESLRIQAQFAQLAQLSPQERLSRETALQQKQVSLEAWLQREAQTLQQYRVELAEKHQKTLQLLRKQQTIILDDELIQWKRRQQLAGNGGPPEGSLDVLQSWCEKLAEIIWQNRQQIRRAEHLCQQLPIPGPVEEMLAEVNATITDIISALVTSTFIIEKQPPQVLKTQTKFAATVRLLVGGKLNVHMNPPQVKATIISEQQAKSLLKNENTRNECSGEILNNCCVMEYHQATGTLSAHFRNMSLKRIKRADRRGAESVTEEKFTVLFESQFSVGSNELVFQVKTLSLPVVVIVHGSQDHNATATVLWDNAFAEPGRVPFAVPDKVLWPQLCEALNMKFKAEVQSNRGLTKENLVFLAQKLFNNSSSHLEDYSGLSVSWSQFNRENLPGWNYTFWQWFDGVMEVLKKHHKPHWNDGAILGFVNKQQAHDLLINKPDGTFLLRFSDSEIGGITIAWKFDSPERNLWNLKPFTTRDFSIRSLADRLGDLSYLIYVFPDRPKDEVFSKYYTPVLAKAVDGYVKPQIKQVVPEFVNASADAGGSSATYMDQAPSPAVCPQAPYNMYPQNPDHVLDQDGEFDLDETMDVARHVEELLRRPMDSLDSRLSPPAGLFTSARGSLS
The experiment in a line: Inhibition of Stat5 phosphorylation in human PANC1 cells at 0.5 to 20 uM by Western blotting analysis. The data set is classed as cell-based. Particulars: PANC-1.

Data set [17] has as its target T2, Signal transducer and activator of transcription 1-alpha/beta (Homo sapiens) (UniProt P42224).
T2 sequence (whole entry): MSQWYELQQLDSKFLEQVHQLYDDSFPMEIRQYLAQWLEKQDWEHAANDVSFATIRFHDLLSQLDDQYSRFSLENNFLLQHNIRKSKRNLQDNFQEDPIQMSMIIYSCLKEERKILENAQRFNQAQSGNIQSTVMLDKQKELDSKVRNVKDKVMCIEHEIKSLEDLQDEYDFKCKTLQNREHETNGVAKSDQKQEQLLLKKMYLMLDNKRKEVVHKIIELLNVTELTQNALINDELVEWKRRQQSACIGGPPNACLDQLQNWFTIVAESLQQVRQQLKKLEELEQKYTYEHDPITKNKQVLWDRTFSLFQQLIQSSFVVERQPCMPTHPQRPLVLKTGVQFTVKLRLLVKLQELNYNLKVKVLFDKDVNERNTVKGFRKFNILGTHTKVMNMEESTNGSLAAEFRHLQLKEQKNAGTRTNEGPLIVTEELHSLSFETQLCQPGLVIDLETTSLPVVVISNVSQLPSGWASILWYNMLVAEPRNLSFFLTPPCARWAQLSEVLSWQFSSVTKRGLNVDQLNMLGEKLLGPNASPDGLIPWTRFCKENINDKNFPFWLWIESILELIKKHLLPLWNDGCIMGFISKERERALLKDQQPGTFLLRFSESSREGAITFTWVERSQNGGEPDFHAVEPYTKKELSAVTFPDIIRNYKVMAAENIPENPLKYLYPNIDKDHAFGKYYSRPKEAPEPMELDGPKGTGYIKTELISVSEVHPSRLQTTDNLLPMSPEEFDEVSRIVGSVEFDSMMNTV
The data set is described as follows: Inhibition of Stat1 phosphorylation in human MDA-MB-231 cells at 0.05 to 10 uM by Western blotting analysis. The data set is classed as cell-based.

In data set [18] the target is Signal transducer and activator of transcription 3 (Homo sapiens) (UniProt P40763). Particulars: 10 uM.
Description: Inhibition of STAT3 (unknown origin) assessed as total STAT3 level at 10 uM after 6 hrs by cell-based Western blotting analysis

SMILES strings stand for the structures. Calls of active or inactive are those of the source. The calls are words filed in the database; no cut-off is given here.

Hypoxia-inducible factor 1-alpha (Homo sapiens), sequence (Q16665 whole entry, looked up, the tested form may be a part): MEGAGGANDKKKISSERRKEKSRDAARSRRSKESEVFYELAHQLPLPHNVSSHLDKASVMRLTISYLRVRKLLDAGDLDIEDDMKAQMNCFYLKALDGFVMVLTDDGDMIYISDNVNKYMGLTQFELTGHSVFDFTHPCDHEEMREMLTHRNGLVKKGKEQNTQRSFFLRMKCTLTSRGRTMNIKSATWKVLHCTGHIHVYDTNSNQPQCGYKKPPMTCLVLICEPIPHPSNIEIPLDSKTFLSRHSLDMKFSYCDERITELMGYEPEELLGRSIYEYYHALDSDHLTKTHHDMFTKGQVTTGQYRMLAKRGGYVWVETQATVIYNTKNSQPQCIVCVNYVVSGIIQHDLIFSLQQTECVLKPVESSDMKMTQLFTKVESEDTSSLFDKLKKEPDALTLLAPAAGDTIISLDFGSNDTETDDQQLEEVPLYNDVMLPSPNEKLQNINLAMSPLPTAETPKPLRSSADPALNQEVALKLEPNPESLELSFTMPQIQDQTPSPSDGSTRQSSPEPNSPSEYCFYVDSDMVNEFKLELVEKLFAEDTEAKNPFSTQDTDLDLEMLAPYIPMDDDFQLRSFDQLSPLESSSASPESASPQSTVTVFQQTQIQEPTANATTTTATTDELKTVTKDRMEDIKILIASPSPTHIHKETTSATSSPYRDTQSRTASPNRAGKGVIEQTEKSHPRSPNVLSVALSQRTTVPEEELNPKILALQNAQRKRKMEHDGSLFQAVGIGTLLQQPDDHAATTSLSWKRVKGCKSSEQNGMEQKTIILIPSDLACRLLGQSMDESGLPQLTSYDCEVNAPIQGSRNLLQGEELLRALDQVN

Take `CN(C)CCCN1C(=O)c2ccc3c4ccc5c6c(ccc(c7ccc(c2c37)C1=O)c64)C(=O)N(CCCN(C)C)C5=O`: the inhibition result (in data set [1]; in [12]; in data set [13]; with PANC-1 [15]; in [16]; in data set [17]) was “inactive” throughout. Besides, the inhibition entry in data set [18] was “inactive”. For the same molecule, the result with PANC-1 [2], in the data set with MDA-MB-468, in the data set on MDA-MB-231 [3] and in the data set on MDA-MB-231 [10] was Active. The inhibition result in data set [4], in [5], in data set [6], in [7] and in [14] was “Active” throughout. The figures for the Activity in data set [8], in data set [9] and in data set [11] were 0.06 g, 75 mm3 and “Non-toxic”, respectively.
